Experimental data taken from ChEMBL document CHEMBL1136436, “A new model of the tautomycin-PP1 complex that is not analogous to the corresponding okadaic acid structure” (Bioorg Med Chem Lett, 2003).

Tests used:
[1] = Inhibition of protein phosphatase 1 (PP1) was determined by standard phosphorylase inhibition assay; design: species or system Oryctolagus cuniculus
[2] = Inhibition of protein phosphatase 2A (PP2A) was determined by standard phosphorylase inhibition assay; design: species or system Oryctolagus cuniculus

Row | IC50 [1] [µM] | IC50 [2] [µM] | SMILES
1 | 130 | 100 | CC[C@@H](C)CC[C@H](O)[C@H](C)C(=O)C[C@@H](O)[C@H](OC)[C@H](OC(=O)C[C@@H](O)C1=C(C)C(=O)OC1=O)C(C)C
2 | 4.8 | 3.3 | CO[C@@H](CO)[C@H](OC(=O)C[C@@H](O)C1=C(C)C(=O)OC1=O)C(C)C

Row | SMILES | IC50 [1] [µM] | IC50 [2] [µM]
3 | CO[C@H]([C@H](O)CC(=O)[C@@H](C)[C@@H](O)CC[C@@H](C)[C@@H]1O[C@]2(CC[C@@H](C)[C@H](CC[C@H](C)C(C)=O)O2)CC[C@@H]1C)[C@H](OC(=O)C[C@@H](O)C1=C(C)C(=O)OC1=O)C(C)C [TAUTOMYCIN] | 0.19 | 0.9
